For data set [1], the system named is Aspergillus niger. Briefly: Antifungal activity against Aspergillus niger at 200 ug/disk after 48 hrs by agar disc-diffusion method. Format: functional. The settings on record: read-out: IZ.
The subject of data set [2] is Staphylococcus aureus. Nature of the data set: Antibacterial activity against Staphylococcus aureus at 200 ug/disk after 24 hrs by agar disc-diffusion method. It counts as functional. The settings on record: read-out: IZ. In general terms: A growth-free zone around the sample is the usual read-out of agar diffusion tests.
Data set [3] concerns Fusarium solani. Briefly: Antifungal activity against Fusarium solani at 200 ug/disk after 48 hrs by agar disc-diffusion method. Format: functional. The settings on record: read-out: IZ.
Data set [4] deals with Escherichia coli. Briefly: Antibacterial activity against Escherichia coli at 200 ug/disk after 24 hrs by agar disc-diffusion method. The settings on record: read-out: IZ. Format: functional.
For data set [5], the system named is Klebsiella pneumoniae. Briefly: Antibacterial activity against Klebsiella pneumoniae at 200 ug/disk after 24 hrs by agar disc-diffusion method. Format: functional. The settings on record: read-out: IZ.
In data set [6] the test system is Escherichia coli. Nature of the data set: Antibacterial activity against Escherichia coli at 100 ug/disk after 24 hrs by agar disc-diffusion method. The settings on record: read-out: IZ. Format: functional.
The subject of data set [7] is Klebsiella pneumoniae. Nature of the data set: Antibacterial activity against Klebsiella pneumoniae at 100 ug/disk after 24 hrs by agar disc-diffusion method. Format: functional. The settings on record: read-out: IZ.
The subject of data set [8] is Fusarium solani. Briefly: Antifungal activity against Fusarium solani at 100 ug/disk after 48 hrs by agar disc-diffusion method. Format: functional. The settings on record: read-out: IZ.
For data set [9], the system named is Staphylococcus aureus. Nature of the data set: Antibacterial activity against Staphylococcus aureus after 24 hrs by microdilution susceptibility method. It counts as functional.
Data set [10] relates to Bacillus subtilis. Briefly: Antibacterial activity against Bacillus subtilis at 200 ug/disk after 24 hrs by agar disc-diffusion method. The settings on record: read-out: IZ. It counts as functional.
The subject of data set [11] is Bacillus subtilis. Nature of the data set: Antibacterial activity against Bacillus subtilis at 100 ug/disk after 24 hrs by agar disc-diffusion method. Format: functional. The settings on record: read-out: IZ.
In data set [12] the test system is Aspergillus niger. Nature of the data set: Antifungal activity against Aspergillus niger after 48 hrs by microdilution susceptibility method. Format: functional. In general terms: In broth dilution the organism is exposed to a series of concentrations in liquid medium.
Data set [13] has as its system Bacillus subtilis. Nature of the data set: Antibacterial activity against Bacillus subtilis after 24 hrs by microdilution susceptibility method. It counts as functional.
Data set [14] relates to Curvularia lunata. Briefly: Antifungal activity against Curvularia lunata after 48 hrs by microdilution susceptibility method. It counts as functional.
Data set [15] deals with Fusarium solani. Briefly: Antifungal activity against Fusarium solani after 48 hrs by microdilution susceptibility method. Format: functional.
Data set [16] is described as follows: Cytotoxicity against mink CCL64 cells upto 100 uM after 72 hrs by MTT assay in presence of 0.2% fetal bovine serum. It counts as cell-based. The settings on record: neovison vison, ccl64, 72 h. On the technique in general: Formazan colour is commonly taken as a measure of viable cells.
The test system of data set [17] is Klebsiella pneumoniae. Briefly: Antibacterial activity against Klebsiella pneumoniae after […] by microdilution susceptibility method. It counts as functional.
Data set [18] concerns Staphylococcus aureus. Nature of the data set: Antibacterial activity against Staphylococcus aureus at 100 ug/disk after 24 hrs by agar disc-diffusion method. Format: functional. The settings on record: read-out: IZ.
The subject of data set [19] is Curvularia lunata. Briefly: Antifungal activity against Curvularia lunata at 200 ug/disk after 48 hrs by agar disc-diffusion method. Format: functional. The settings on record: read-out: IZ.
Data set [20] concerns Escherichia coli. Nature of the data set: Antibacterial activity against Escherichia coli after 24 hrs by microdilution susceptibility method. Format: functional.
Data set [21] relates to Curvularia lunata. Nature of the data set: Antifungal activity against Curvularia lunata at 100 ug/disk after 48 hrs by agar disc-diffusion method. The settings on record: read-out: IZ. It counts as functional.
A further data set concerns A549. Nature of the data set: Cytotoxicity against human A549 cells upto 100 uM after 72 hrs by MTT assay in presence of 10% fetal bovine serum. It counts as functional, cell-based.
Data set [22] concerns Aspergillus niger. Nature of the data set: Antifungal activity against Aspergillus niger at 100 ug/disk after 48 hrs by agar disc-diffusion method. The settings on record: read-out: IZ. It counts as functional.

One compound from ChEMBL document CHEMBL1158337, “Synthesis and bioassay of a new class of heterocycles pyrrolyl oxadiazoles/thiadiazoles/triazoles” (Eur J Med Chem, 2009) can be followed below.

The structures appear in SMILES notation. Values after ≈ are worked out from the molar mass of the structure shown.

Usually MIC stands for the lowest concentration that inhibits growth of the organism.

Regarding `Nn1c(S)nnc1CS(=O)(=O)c1c[nH]cc1S(=O)(=O)c1ccccc1`, the zone of inhibition at 200 µg/disc in the data set on Aspergillus niger [1] is 34 mm; in the data set on Staphylococcus aureus [2], 32 mm; with Fusarium solani [3] it was 36 mm; in the data set with Escherichia coli [4], 26 mm; in the data set on Klebsiella pneumoniae [5], 22 mm; with Bacillus subtilis [10] it was 35 mm. Also, in the data set with Curvularia lunata [19], the zone of inhibition at 200 µg/disc was 36 mm. Besides, the zone of inhibition at 100 µg/disc is 22 mm with Escherichia coli [6]; 21 mm in the data set on Klebsiella pneumoniae [7]; 33 mm with Fusarium solani [8]; 31 mm in the data set with Bacillus subtilis [11]; 28 mm in the data set with Staphylococcus aureus [18]; 34 mm in the data set with Curvularia lunata [21]. The zone of inhibition at 100 µg/disc in the data set with Aspergillus niger [22] is 30 mm. Further, the MIC against Staphylococcus aureus [9] was 25 µg/mL (≈ 62.6 µM); with Aspergillus niger [12], 100 µg/mL (≈ 250 µM); with Bacillus subtilis [13], 100 µg/mL (≈ 250 µM); with Curvularia lunata [14] it was 100 µg/mL (≈ 250 µM); against Fusarium solani [15] it was 100 µg/mL (≈ 250 µM); against Klebsiella pneumoniae [17], 100 µg/mL (≈ 250 µM). This compound registered an MIC against Escherichia coli [20] of 100 µg/mL (≈ 250 µM). Besides, the Activity entry in data set [16] is “Non-toxic”; in the data set with A549, “Not toxic”.
